Data as given in patent US9269550B2, “Mass spectrometric methods for quantifying NPY 1-36 and NPY 3-36” (Georgetown University, priority 2010, dated 2016).

What was measured:
SK-N-MC cells = experiment: Cell viability in SK-N-MC cells; type: cell-based, human
Y1Rs = molecular target: T1, Y1Rs (Homo sapiens, UniProt P25929); settings: cited from earlier work
T1 sequence (P25929 1-384): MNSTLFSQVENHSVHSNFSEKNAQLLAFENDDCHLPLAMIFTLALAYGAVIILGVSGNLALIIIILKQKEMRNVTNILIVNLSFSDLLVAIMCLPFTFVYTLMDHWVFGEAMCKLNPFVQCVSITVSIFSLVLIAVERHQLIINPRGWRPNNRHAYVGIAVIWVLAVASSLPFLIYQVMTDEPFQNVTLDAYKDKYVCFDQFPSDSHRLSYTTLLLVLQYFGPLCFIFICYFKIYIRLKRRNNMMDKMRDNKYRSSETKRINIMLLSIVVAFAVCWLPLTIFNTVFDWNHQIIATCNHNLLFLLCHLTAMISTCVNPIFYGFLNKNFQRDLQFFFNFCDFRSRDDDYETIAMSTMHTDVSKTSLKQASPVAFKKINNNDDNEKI

NPY 3-36: 34-amino acid peptide fragment formed by dipeptidyl peptidase IV (DPPIV) cleavage of NPY 1-36
decrease in cell viability (SK-N-MC cells): not | activity at Y1Rs (Y1Rs): inactive

NPY 1-36: 36-amino acid peptide neurotransmitter found in the brain and autonomic nervous system
decrease in cell viability (SK-N-MC cells): decrease in cell viability was achieved
